Structures can show the parent of a compound that is named as a salt.
System: plaque type psoriasis vulgaris
Test: Simple-blind, own-control topical gel treatment of five psoriasis patients (Example 1)
Assay type: in vivo, human
Text: The gel used was of the following composition:
Patients for the treatment of psoriasis (five patients) were chosen as having a relatively secure diagnosis of plaque type psoriasis vulgaris with silvery scales covering the surface of the lesion. This disease tends to be chronic, and often difficult to treat with topical agents. All of the five patients treated were diagnosed by a dermatologist and had the diagnosis for over three years. None of these patients had arthritis.
After a treatment, which may vary from two weeks to one month, there was a considerable improvement both scaling, size, thickness and erythematous appearance of the lesions. The lesions in these patients were all symmetric and each patient was treated with the formulation of the present invention without the active compound on one side and with the active compound on the other. Each patient was treated as their own control (simple blind).
Two patients were treated with galantamine and three patients with donepezil.

Structure (SMILES) | adverse effect (human, in vivo) | adverse effect (gel containing 0.1% active compound, two days twice daily)
COc1cc2c(cc1OC)C(=O)C(CC1CCN(Cc3ccccc3)CC1)C2 (centres unmarked) [donepezil, donepezil hydrochloride] | no adverse effect was noticed | –
COc1ccc2c3c1O[C@H]1C[C@@H](O)C=C[C@@]31CCN(C)C2 [galantamine, galantamine hydrobromide] | – | no adverse effect was noticed
